Results reported in US20250099448A1, “HETEROCYCLIC COMPOUNDS” (Hoffmann-La Roche Inc., priority 2022, published 2025).

These compounds were tested against T1, MAGL protein (Homo sapiens, UniProt Q99685) (assay: 2-AG assay: MAGL inhibitory activity by hydrolysis of 2-arachidonoylglycerol to arachidonic acid, followed by mass spectrometry). Settings: 8 μM 2-arachidonoylglycerol, 15 min preincubation, 30 min reaction at RT, RapidFire MS readout.
T1 sequence (Q99685 1-303): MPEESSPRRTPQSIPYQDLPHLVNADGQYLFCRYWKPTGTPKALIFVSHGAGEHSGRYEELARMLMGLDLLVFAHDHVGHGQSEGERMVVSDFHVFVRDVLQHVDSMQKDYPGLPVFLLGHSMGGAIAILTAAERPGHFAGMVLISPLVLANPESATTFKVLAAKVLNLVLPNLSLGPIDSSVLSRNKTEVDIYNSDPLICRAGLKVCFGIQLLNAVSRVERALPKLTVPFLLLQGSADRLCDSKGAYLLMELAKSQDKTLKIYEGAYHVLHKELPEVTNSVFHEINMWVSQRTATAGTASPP
Type: biochemical
Method in brief: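 MAGL was preincubated 15 min at RT with compound (12.5 to […], 3-fold steps) in 50 mM TRIS, 1 mM EDTA, 0.01% Tween-20, 2.5% DMSO. The reaction ran 30 min at RT with 8 μM 2-AG. Arachidonic acid was quantified by RapidFire SPE-MS/MS against a d8-arachidonic acid internal standard.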

SMILES	IC50
N=S(=O)(c1ccc(COC2CN(C(=O)N3CC4(CC(c5nc(C6(O)CC6)n[nH]5)C4)C3)C2)c(F)c1)C(F)(F)F (centres unmarked) [Example 576, [3-[2-fluoro-4-(trifluoromethylsulfonimidoyl)benzyl]oxyazetidin-1-yl]-[6-[3-(1-hydroxycyclopropyl)-1H-1,2,4-triazol-5-yl]-2-azaspiro[3.3]heptan-2-yl]methanone]	85.1 nM
O=C(N1CC(c2cnc(N3CC[C@@H](C(F)(F)F)C3)nc2)C1)N1CC2(CC(c3nc(C4CC4)n[nH]3)C2)C1 (single isomer, unassigned) [compound 265]	4.38 nM
O=C(N1CC2(CCC(Cc3ccc(C(F)(F)F)cn3)C2)C1)N1CC2(CC(c3nc(C4(O)CC4)n[nH]3)C2)C1 (centres unmarked) [compound 927]	2.51 nM
O=C(N1CC(c2ccc(N3CCS(=O)(=O)CC3)nc2)C1)N1CC2(CC(c3nnc(C4CC4)[nH]3)C2)C1 [compound 80]	58.3 nM
N=S(=O)(c1cccc(CC2CC3(C2)CN(C(=O)N2CC4(CC(c5nc(C6(O)CC6)n[nH]5)C4)C2)C3)c1)C(F)(F)F (centres unmarked) [compound 639]	0.21 nM
O=C(N1CCC(CNS(=O)(=O)c2ccc(OC(F)(F)F)cc2)CC1)N1CC2(CC(c3nnc(C4CC4)[nH]3)C2)C1 [compound 251]	23.9 nM
O=C(N1CC2(CC(Cc3cnc(C(F)(F)F)cn3)C2)C1)N1CC2(CC(c3nc(C4(F)CC4)n[nH]3)C2)C1 [compound 424]	0.46 nM
CS(=O)(=O)c1cnn(CC2CC3(C2)CN(C(=O)N2CC4(CC(c5nc(C6CC6)n[nH]5)C4)C2)C3)c1 [compound 953]	11.2 nM
